Consider one molecule from BindingDB's records for doi:10.1124/mol.62.4.947 (National Cancer Institute-Bethesda, 2002).

The experiment has as its target Transient receptor potential cation channel subfamily V member 1 (Rattus norvegicus, UniProt O35433).

Transient receptor potential cation channel subfamily V member 1, sequence (O35433 whole entry): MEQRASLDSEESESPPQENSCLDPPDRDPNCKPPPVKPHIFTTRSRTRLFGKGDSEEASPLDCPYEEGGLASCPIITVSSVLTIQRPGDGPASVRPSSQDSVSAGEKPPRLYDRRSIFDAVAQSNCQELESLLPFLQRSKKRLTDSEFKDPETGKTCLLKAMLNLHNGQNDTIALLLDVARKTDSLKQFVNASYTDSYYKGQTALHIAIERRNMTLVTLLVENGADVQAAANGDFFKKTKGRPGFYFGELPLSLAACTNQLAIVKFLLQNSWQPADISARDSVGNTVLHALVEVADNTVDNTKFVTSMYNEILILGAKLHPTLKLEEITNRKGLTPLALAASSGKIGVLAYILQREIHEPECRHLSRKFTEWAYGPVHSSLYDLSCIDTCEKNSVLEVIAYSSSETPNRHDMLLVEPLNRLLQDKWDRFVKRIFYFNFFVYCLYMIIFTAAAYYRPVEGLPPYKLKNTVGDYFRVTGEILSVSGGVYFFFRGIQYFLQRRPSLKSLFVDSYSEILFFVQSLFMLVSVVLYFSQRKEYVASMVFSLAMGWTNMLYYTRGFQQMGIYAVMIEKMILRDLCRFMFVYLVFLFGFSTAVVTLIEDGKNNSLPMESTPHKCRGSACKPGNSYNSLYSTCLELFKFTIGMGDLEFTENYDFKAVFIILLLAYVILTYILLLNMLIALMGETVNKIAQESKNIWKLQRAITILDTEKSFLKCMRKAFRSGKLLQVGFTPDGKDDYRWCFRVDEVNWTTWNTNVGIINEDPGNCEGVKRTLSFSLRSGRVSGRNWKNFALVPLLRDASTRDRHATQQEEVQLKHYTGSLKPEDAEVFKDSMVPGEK

A word on the Ki: it is the equilibrium dissociation constant of an inhibitor or competing ligand from its target. On to `CC(C)(C)c1ccc(CNC(=S)NCc2ccc(NS(C)(=O)=O)c(F)c2)cc1` [JYL1421], for which the affinity, expressed as Ki, was 9.2 nM.
